Entries after “also recorded” stand apart in the source; their conditions may differ. Square brackets hold non-standard residues; d marks the D form. Primed or numbered codes have the meaning given here. PEG7′ = (PEG)7 moiety; Ava = NCCCCC(=O)O; βAla = NCCC(=O)O

One assay deals with 293T cells. Description: Cellular delivery of pGL4 plasmid DNA expressing Luciferase, luciferase expression at 72 hrs. It is filed as cell-based. The note with it: for reduction of efficiency / luciferase expression in the presence of serum: complexes incubated 3 hrs in 25% serum prior transfection; for reduction of efficiency / luciferase expression in the presence of serum / reduction of efficiency / luciferase expression in heparan sulfate: pGL4 plasmid; for reduction of efficiency / luciferase expression in heparan sulfate: complexes incubated 3 hrs with heparan sulfate prior transfection. Here is the method: FIGS. 2A-2C show luciferase expression in 293T cells treated with ADGN-peptide/pGL4 plasmid DNA complexes. 293T cells cultured in 48 well plates were transfected with ADGN-peptide nanoparticles. ADGN-100, ADGN-106, ADGN-100RI, ADGN-106RI, ADGN-100 Stearyl, ADGN-Hydro1, ADGN-Hydro2, ADGN-Hydro3, ADGN-Hydro4, ADGN-Hydro5, and ADGN-Hydro6 containing 0.17 μg pGL4 plasmid DNA were formed in sterile water, diluted in sterile water containing 5% Sucrose. ADGN-peptide nanoparticles were evaluated prior (FIG. 2A) and after filtration with 0.45 μm PES filters (FIG. 2B). FIG. 2C impact of peGylated ADGN-100 on the transfection efficiency. pGL4 luc plasmid (0.15 μg) were associated to ADGN-100 solution containing 5 to 50% of ADGN-100-PEG or to ADGN-100PEG. ADGN/pGL4 plasmid DNA complexes were incubated for 3 hrs in the presence of either 25% serum or heparan sulfate prior transfection. Luciferase expression was monitored 72 hours post transfection and results were reported as RLU (luminescence):mg of protein.
Complex formation with plasmid DNA. The following protocols were used for the transfection of 2-5 106 Cells or Cells at confluency of about 70-80% cultured in 24 well plates. ADGN peptide/plasmid DNA pGL4 particles were prepared at a 20:1 molar ratio of ADGN-Peptide/pGL4. using (0.2 μg). PGL4 plasmid (0.15 μg) was diluted in 20 μl of sterile water (GIBCO) at room temperature. 10 μl Final Peptide Solution was added to obtain a total volume of 20 μl. The volume was adjusted to 50 μl with sterile water and was mixed gently with vortex 1 min low speed and incubated 30 min at room temperature. Then the volume was made up to 100 μl by adding sterile water containing 5% sucrose, and the solution was mixed gently with vortex 1 min low speed and incubate 5 min at 37° C. and then was proceeded to cell transfection.
(§1) Transfection protocol. Protocol is reported for 24 well plate format. Cells were cultured in Dulbecco's Modified Eagle's Medium (DMEM), supplemented with 2 mM glutamine, 1% antibiotics (streptomycin 10,000 μg/mL, penicillin, 10,000 IU/mL) and 10% (w/v) foetal calf serum (FCS), at 37° C. in a humidified atmosphere containing 5% CO2. 24 well plates seeded with 150,000 cells the day prior to transfection were grown to 50-60% confluence and set up to be at about 70% confluences at the time of transfection. Before transfection, cells were washed twice with DMEM. Cells were then overlaid with 0.1 ml of ADGN-peptide/cargo complex solution containing 0.25 μg mRNA, 0.15 μg plasmid DNA or 10-25 nM siRNA, mixed gently, and incubated for 10 min at 37° C. 0.2 mL of fresh DMEM, were added and cells were incubated for 20 min at 37° C. 1 mL of complete DMEM containing 15% FCS were then added in order to reach a final FCS concentration of 10%, without removing the overlay of ADGN-peptide/cargo complexes. Cells were returned to the incubator (37° C., 5% CO2) and 72 hrs post transfection.
ADGN-peptides were evaluated for cellular delivery of pGL4 plasmid DNA expressing Luciferase in 293T cells. Luc pGL4 plasmid (0.15 μg) in sterile water (GIBCO) were mixed with ADGN-100, ADGN-100RI, ADGN-106, ADGN-106RI, ADGN-100 Stearyl, ADGN-100Hydro1, ADGN-100Hydro2, ADGN-100Hydro4, ADGN-100Hydro3, ADGN-100Hydro5 and ADGN-100Hydro6. ADGN-peptide/mRNA complexes were filtered with 0.45 μm PES filter. In order to evaluate the stability of the ADGN/pGL4 plasmid complexes in high serum and cell culture conditions, the complexes were incubated for 3 hrs in the presence of either 25% serum or heparan sulfate prior transfection, then 293T cells were transfected and Luciferase expression was monitored at 72 hrs.

A further assay relates to A375/Luc cells. Description: Cellular delivery of siRNA targeting Luciferase, luciferase silencing at 48 hrs. It is filed as cell-based. The note with it: 50% or 100% ADGN-100 PEG. Here is the method: FIGS. 3A-3C show luciferase expression in A375/Luc cells treated with ADGN-peptide/siRNA complexes. A375/Luc cells cultured in 48 well plates were transfected with ADGN-peptide nanoparticles. ADGN-100, ADGN-106, ADGN-100RI, ADGN-106RI, ADGN-100 Stearyl, ADGN-Hydro1, ADGN-Hydro2, ADGN-Hydro3, ADGN-Hydro4, ADGN-Hydro5, ADGN-Hydro6 and ADGN-peptide/ADGN-100PEG 10% nanoparticles containing 10 nM or 25 nM siRNA were formed in sterile water, diluted in sterile water containing 5% Sucrose and filtered with 0.45 μm PES filters. FIG. 3C impact of peGylated ADGN-100 on the transfection efficiency. siRNA Luc (10 nM and 25 nM) were associated to ADGN-100 solution containing 5 to 50% of ADGN-100-PEG or to ADGN-100PEG. ADGN/siRNA complexes were incubated for 3 hrs in the presence of 25% serum prior transfection. Luciferase expression was monitored 48 hours post transfection and results were reported as RLU (luminescence):mg of protein.
Complex formation with siRNA. The following protocols were used for the transfection of 2-5 106 Cells or Cells at confluency of about 70-80% cultured in 24 well plates. ADGN peptide/siRNA Luc particles were prepared at a 20:1 molar ratio of ADGN-Peptide/pGL4. using 20 nM siRNA. The siRNA duplex (10 and 25 nM) was diluted in 20 μl of sterile water (GIBCO) at room temperature. 1.5 or 3 μl of a Final Peptide Solution (55 μM) was added to obtain a total volume of 20 μl. The volume was adjusted to 50 μl with sterile water and was mixed gently with vortex 1 min low speed and incubated 30 min at room temperature. Then the volume was made up to 100 μl by adding sterile water containing 5% sucrose, and the solution was mixed gently with vortex 1 min low speed and incubate 5 min at 37° C. and then was proceeded to cell transfection.
as §1
ADGN-peptides were evaluated for cellular delivery of siRNA duplex targeting Luciferase in A375/Luc cells. siRNA targeting luciferase (10 and 25 nM) in sterile water (GIBCO) were mixed with ADGN-100, ADGN-100RI, ADGN-106, ADGN-106RI, ADGN-100 Stearyl, ADGN-100Hydro1, ADGN-100Hydro2, ADGN-100Hydro4, ADGN-100Hydro3, ADGN-100Hydro5 and ADGN-100Hydro6. ADGN-peptide/siRNA complexes were filtered with 0.45 μm PES filter. In order to evaluate the stability of the ADGN/siRNA complexes in high serum conditions, the complexes were incubated for 3 hrs in the presence of 25% serum, then A375/Luc cells were transfected and Luciferase expression was monitored at 48 hrs.

The test system of the next assay is mice or rat models. Description: Summary of cargo delivery to targeted organ (Table 1). It is filed as in vivo. The note with it: cargoes and route (IV, IM, SQ, NB) per peptide as listed in Table 1. The text has this:
Table 1 lists a summary of cell-penetrating peptides that have been proven successful in delivering various cargo molecules to on or more targeted organ (e.g., by intravenous (IV), intramuscular (IM), or subcutaneous (SQ) administration, or intratraccheal instillation or nebulization (NB)) in mice or rat models.

On to “Ac-(PEG)7-βA-KWRSALWRWRLWRVRSWSR-NH2 ({Ac-PEG7′}-[βAla]KWRSALWRWRLWRVRSWSR-NH2) [ADGN-100-PEG7]”, for which, in the assay with 293T cells (50% or 100% ADGN-100 PEG, pGL4 plasmid 0.15 μg), the “reduction of level of Luciferase expression” value is recorded as 80%. Further, in the assay with A375/Luc cells, the “reduction of transfection efficiency” value is given as 80%.

With “Ac-GYVS-Ava-KWRSALWRWRLWRVRSWSR-NH2 (Ac-GYVS[Ava]KWRSALWRWRLWRVRSWSR-NH2; SMILES CC(=O)NCC(=O)N[C@@H](Cc1ccc(O)cc1)C(=O)N[C@H](C(=O)N[C@@H](CO)C(=O)NCCCCC(=O)N[C@@H](CCCCN)C(=O)N[C@@H](Cc1c[nH]c2ccccc12)C(=O)N[C@@H](CCCNC(=N)N)C(=O)N[C@@H](CO)C(=O)N[C@@H](C)C(=O)N[C@@H](CC(C)C)C(=O)N[C@@H](Cc1c[nH]c2ccccc12)C(=O)N[C@@H](CCCNC(=N)N)C(=O)N[C@@H](Cc1c[nH]c2ccccc12)C(=O)N[C@@H](CCCNC(=N)N)C(=O)N[C@@H](CC(C)C)C(=O)N[C@@H](Cc1c[nH]c2ccccc12)C(=O)N[C@@H](CCCNC(=N)N)C(=O)N[C@H](C(=O)N[C@@H](CCCNC(=N)N)C(=O)N[C@@H](CO)C(=O)N[C@@H](Cc1c[nH]c2ccccc12)C(=O)N[C@@H](CO)C(=O)N[C@@H](CCCNC(=N)N)C(N)=O)C(C)C)C(C)C) [ADGN-100 hydro-4]”, in the assay with 293T cells, the “reduction of efficiency / luciferase expression in the presence of serum” value is “do not significantly improved transfection” and the “reduction of efficiency / luciferase expression in heparan sulfate” value was “do not significantly improved transfection”. The “Targeted Organ” value with mice or rat models is given as “Liver/Lung/; also recorded: Kidney/Spleen”.

“Ac-YIGSR-Ava-KWRSALWRWRLWRVRSWSR-NH2 (Ac-YIGSR[Ava]KWRSALWRWRLWRVRSWSR-NH2; SMILES CC[C@H](C)[C@H](NC(=O)[C@H](Cc1ccc(O)cc1)NC(C)=O)C(=O)NCC(=O)N[C@@H](CO)C(=O)N[C@@H](CCCNC(=N)N)C(=O)NCCCCC(=O)N[C@@H](CCCCN)C(=O)N[C@@H](Cc1c[nH]c2ccccc12)C(=O)N[C@@H](CCCNC(=N)N)C(=O)N[C@@H](CO)C(=O)N[C@@H](C)C(=O)N[C@@H](CC(C)C)C(=O)N[C@@H](Cc1c[nH]c2ccccc12)C(=O)N[C@@H](CCCNC(=N)N)C(=O)N[C@@H](Cc1c[nH]c2ccccc12)C(=O)N[C@@H](CCCNC(=N)N)C(=O)N[C@@H](CC(C)C)C(=O)N[C@@H](Cc1c[nH]c2ccccc12)C(=O)N[C@@H](CCCNC(=N)N)C(=O)N[C@H](C(=O)N[C@@H](CCCNC(=N)N)C(=O)N[C@@H](CO)C(=O)N[C@@H](Cc1c[nH]c2ccccc12)C(=O)N[C@@H](CO)C(=O)N[C@@H](CCCNC(=N)N)C(N)=O)C(C)C) [ADGN-100-Hydro-3]”: in the assay with 293T cells, the “reduction of efficiency / luciferase expression in the presence of serum” value is recorded as “do not significantly improved transfection” and the “reduction of efficiency / luciferase expression in heparan sulfate” value is listed as “do not significantly improved transfection”. For the same substance, the “Targeted Organ” value in the assay with mice or rat models is listed as “Tumor/Lung”.

For the origin of these results see patent US12357695B2, “Peptides and nanoparticles for intracellular delivery of molecules” (AADIGEN, LLC, priority 2019, dated 2025).
